Among the data in ChEMBL document CHEMBL1123104, “Enzyme-activated irreversible inhibitors of monoamine oxidase: phenylallylamine structure-activity relationships” (J Med Chem, 1985) are IC50 values, retold here.

The assay has as its target T1, Monoamine oxidase (Rattus norvegicus, UniProt P19643+P21396).
T1 sequence (P19643 whole entry): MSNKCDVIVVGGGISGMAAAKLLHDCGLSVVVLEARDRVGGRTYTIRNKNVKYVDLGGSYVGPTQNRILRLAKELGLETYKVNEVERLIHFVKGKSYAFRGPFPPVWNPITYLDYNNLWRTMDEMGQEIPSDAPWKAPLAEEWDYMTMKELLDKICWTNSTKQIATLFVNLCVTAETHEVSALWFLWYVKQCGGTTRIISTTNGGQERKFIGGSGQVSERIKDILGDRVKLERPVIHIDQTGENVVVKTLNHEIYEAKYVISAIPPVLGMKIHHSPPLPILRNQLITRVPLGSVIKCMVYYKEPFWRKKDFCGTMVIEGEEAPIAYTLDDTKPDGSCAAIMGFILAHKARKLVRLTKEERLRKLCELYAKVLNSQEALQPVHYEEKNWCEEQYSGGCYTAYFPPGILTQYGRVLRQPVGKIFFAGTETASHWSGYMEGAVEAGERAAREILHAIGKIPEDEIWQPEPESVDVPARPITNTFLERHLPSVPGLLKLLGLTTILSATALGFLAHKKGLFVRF
T1 sequence (P21396 whole entry): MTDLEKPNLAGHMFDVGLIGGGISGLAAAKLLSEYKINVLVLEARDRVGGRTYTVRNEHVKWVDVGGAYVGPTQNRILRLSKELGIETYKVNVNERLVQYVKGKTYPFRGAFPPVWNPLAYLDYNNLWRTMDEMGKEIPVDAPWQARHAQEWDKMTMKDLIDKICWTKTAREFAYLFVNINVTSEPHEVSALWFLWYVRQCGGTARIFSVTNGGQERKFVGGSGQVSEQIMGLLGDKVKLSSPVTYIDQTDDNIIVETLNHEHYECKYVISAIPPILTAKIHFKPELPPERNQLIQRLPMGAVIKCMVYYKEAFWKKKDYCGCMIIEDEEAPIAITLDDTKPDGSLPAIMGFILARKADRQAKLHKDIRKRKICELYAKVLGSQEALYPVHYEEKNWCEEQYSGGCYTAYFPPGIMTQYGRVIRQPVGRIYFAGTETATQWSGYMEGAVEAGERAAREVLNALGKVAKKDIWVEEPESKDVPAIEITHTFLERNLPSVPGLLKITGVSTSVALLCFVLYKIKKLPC
Nature of the assay: Inhibitory activity against rat brain mitochondrial Monoamine oxidase.
What is called IC50 is the concentration needed to halve the response being measured. A lower IC50 goes with inhibition by little substance. In turn, `COc1ccc(/C(=C\F)CN)cc1OC.Cl` returned an IC50 of 25 nM.

The molecule `COc1ccccc1/C(=C\F)CN.Cl` returned an IC50 of 25 nM.

On to `Cl.NC/C(=C/F)c1cccc(O)c1`, for which the IC50 came to 50 nM.

Regarding `Cl.NC/C(=C/F)c1ccc(Cl)cc1`, the IC50 worked out at 20 nM.

Molecule `Cl.NCC(=C(F)F)c1ccccc1` had an IC50 of 10000 nM.

On to `Cl.NCC(=C(Br)Br)c1ccccc1`, for which the 50% inhibitory concentration (IC50) turned out to be 500000 nM.

The molecule `Cl.NC/C(=C/Cl)c1ccccc1` returned an IC50 of 100000 nM.

Turning to `Cl.NC/C(=C/F)c1cccc(C(F)(F)F)c1`, the IC50 worked out at 7 nM.

`Cl.NC/C(=C\Cl)c1ccccc1`: the 50% inhibitory concentration (IC50) was 500000 nM.

For the molecule `C=C(CN)c1ccccc1.Cl`, the concentration for half-maximal inhibition (IC50) is 400000 nM.

`Cl.NC/C(=C/F)c1ccccc1` came in with an IC50 of 18 nM.

`Cl.NC/C(=C\F)c1ccccc1` registered a concentration for half-maximal inhibition (IC50) of 150 nM.

Turning to `Cl.NC/C(=C/F)c1ccc(O)c(O)c1`, the 50% inhibitory concentration (IC50) is 100 nM.

With `COc1cccc(/C(=C\F)CN)c1.Cl`, the half-maximal inhibitory concentration (IC50) turned out to be 5 nM.

In turn, `Cc1ccc(/C(=C\F)CN)cc1.Cl` had an IC50 of 10 nM. This IC50 is about 2-fold higher than that of the molecule before.

For the molecule `Cl.NC/C(=C/Br)c1ccccc1`, the IC50 is 40000 nM.

Molecule `C=CCN` [ALLYLAMINE] gave an IC50 of 500000 nM.
